In US20190183812A1, “Compounds For The Treatment Of Neuromuscular Disorders” (NMD PHARMA A/S, priority 2017, published 2019):
pKd: −log10 of the molar value.

Tests used:
[1] = tested on: isolated rat soleus muscles; experiment: Recovery of nerve-stimulated force in isolated rat soleus muscles exposed to sub-maximal tubocurarine; conditions: Rattus norvegicus, 40 min; read-out: 50 μM % change after addition
Description: Experiments were performed using rat soleus muscles from either young (4-wk-old) or adult Wistar rats (12-14-week-old). Animal handling, killing and isolation of muscle is described elsewhere All experiments were performed using normal Krebs-Ringer bicarbonate solution (NKR). In solutions with elevated Mg^2+, MgCl2 was added to NKR-solution causing minor increases in osmolarity and ionic strength. In solutions with elevated K^+, 4 mM NaCl was replaced by 4 mM KCl in the NKR.
In all contraction experiments, isometric force production was determined and force produced during contractions was quantified by measuring the integral of the force response (AUC). Stimulation and force recordings have been described elsewhere. […] In these latter experiments, extracellular recordings of action potentials (M-waves) could be measured without temporal overlap with stimulation artefacts.
The aim was to find compounds that by inhibition of CIC-1 channels can recover nerve-stimulated force under conditions of fatigue including conditions where fatigue is caused by compromised neuromuscular transmission. Neuromuscular transmission dysfunction can develop because of both pre- and/or post-synaptic complications in connection with a disorder or as part of neuromuscular blockade during/after surgery. In the initial series of drug testing, experiments were performed with isolated muscles in the presence of sub-maximal ACh receptor antagonist tubocurarine. Since the inclusion of tubocurarine caused a partial loss of neuromuscular transmission this experiment mimics the conditions in myasthenia gravis and neuromuscular blockade. To mimic conditions with pre-synaptic complication (Lambert Eaton syndrome, motor neuron disorder, polyneuropathy) the intact nerve-muscle preparations were incubated at elevated extracellular Mg^2+, which is known to suppress release of ACh from nerve terminals of motor neurons.
To identify CIC-1 inhibitors that could be used for treatment of neuromuscular disorders we repeated the experiment shown in FIG. 2A but instead of adding 9-AC we added the compounds of interest in different concentrations within the range from 10 to 500 μM. […] For comparison with the muscle only exposed to tubocurarine (grey trace), the two traces have been overlaid. […] For comparison, muscles only exposed to tubocurarine have been included. The dotted line indicates the recovery of force with C8 when compared to the force production before its addition. This value was used in Table 1 for evaluation of the efficacy of the different compounds in recovering force.

CIC-1 ion channels = target: T1, CIC-1 ion channels (Rattus norvegicus, UniProt P35524); experiment: Resting membrane conductance (Gm), three-electrode technique, rat muscle: Kd for CIC-1 inhibition; format: cell-based; conditions: concentration that reduced Gm by 50%
T1 construct: from tissue; host or cells: soleus muscle of adult (12-14 week old) Wistar rats
T1 sequence (P35524 1-994): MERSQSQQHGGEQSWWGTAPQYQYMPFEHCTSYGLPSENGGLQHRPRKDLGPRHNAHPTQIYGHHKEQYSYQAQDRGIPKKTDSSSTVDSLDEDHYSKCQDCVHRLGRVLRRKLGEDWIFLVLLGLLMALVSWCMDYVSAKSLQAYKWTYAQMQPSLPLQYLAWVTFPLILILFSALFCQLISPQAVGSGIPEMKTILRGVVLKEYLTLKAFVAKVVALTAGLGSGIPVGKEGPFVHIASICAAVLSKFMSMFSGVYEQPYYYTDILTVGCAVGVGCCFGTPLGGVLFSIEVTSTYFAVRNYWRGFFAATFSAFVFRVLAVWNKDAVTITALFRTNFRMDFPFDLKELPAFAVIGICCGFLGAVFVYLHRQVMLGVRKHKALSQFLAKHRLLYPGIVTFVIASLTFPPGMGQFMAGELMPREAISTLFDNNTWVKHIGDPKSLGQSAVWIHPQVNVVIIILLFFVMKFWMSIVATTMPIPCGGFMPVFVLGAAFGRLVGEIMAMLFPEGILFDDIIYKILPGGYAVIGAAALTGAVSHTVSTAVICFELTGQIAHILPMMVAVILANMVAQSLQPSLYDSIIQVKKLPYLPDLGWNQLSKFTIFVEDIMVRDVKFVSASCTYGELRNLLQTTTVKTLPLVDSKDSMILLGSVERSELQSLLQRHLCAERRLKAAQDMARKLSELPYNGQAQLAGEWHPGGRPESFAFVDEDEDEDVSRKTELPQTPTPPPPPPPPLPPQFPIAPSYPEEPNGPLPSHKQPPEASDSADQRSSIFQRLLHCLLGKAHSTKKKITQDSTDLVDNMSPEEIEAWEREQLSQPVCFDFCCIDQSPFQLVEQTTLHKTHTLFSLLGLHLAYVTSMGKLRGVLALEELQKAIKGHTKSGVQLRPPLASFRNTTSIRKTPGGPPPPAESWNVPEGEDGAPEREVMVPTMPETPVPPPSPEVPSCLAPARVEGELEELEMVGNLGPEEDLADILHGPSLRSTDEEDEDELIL

human CIC-1 channels = target: T2, human CIC-1 channels (Homo sapiens, UniProt P35523); experiment: Automated patch-clamp on human CIC-1 expressed in CHO cells; format: cell-based; conditions: compound added to the intracellular solution vs vehicle control patches; positive shift reflects CIC-1 inhibition
T2 construct: host or cells: CHO (Chinese hamster ovary) cells
T2 sequence (P35523 whole entry): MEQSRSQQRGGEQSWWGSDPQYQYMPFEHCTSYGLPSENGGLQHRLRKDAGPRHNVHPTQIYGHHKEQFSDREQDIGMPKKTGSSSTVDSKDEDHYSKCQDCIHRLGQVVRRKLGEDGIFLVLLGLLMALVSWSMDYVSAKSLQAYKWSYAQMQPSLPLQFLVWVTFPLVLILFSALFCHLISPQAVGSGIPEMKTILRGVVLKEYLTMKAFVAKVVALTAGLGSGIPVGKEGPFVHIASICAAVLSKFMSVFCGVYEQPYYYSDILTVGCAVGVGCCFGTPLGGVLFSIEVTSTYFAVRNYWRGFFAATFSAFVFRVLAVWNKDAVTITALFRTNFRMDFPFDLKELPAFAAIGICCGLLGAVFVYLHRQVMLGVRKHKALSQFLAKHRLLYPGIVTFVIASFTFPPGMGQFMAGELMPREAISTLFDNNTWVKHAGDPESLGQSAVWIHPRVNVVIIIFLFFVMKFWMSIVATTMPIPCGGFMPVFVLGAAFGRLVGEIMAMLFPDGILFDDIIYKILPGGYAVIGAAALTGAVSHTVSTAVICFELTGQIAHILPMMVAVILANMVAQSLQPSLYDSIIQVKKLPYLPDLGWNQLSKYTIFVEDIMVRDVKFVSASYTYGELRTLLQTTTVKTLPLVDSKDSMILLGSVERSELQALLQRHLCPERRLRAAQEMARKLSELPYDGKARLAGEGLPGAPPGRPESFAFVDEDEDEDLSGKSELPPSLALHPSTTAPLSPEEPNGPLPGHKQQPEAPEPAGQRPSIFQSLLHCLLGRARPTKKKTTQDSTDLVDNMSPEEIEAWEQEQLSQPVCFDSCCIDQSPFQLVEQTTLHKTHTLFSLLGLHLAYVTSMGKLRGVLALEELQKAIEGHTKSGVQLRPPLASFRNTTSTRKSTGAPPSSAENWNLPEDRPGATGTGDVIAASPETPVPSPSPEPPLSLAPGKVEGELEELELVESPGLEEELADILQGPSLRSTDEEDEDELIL
Description: The investigatory goal of these experiments was to evaluate how compounds affect the open probability and current amplitude of human CIC-1 channels expressed in CHO cells. Experiments were performed using an automated patch clamp system that allowed high throughput testing of whole cell patches together with both intracellular and extracellular addition of compound.
Automated whole cell patch clamp experiments were performed with the Qpatch 16 system (Sophion Bioscience, Ballerup, Denmark) at room temperature. Data acquisition and analysis were performed in the Qassay software (ver. 5.6, Odense).
To evoke CIC-1 currents in whole cell patches, the membrane potential was initially stepped from a holding potential of −30 mV to +60 mV for 100 ms and then to various test voltages (sweeps) ranging from +120 mV to −140 mV in steps of 20 mV for 300 ms. To obtain tail currents, the membrane potential was stepped to −100 mV after each test voltage for 300 ms and then relaxed to −30 mV for 2 sec between sweeps (FIG. 3). I/V relationships for whole cell instant and steady state current amplitudes were obtained by plotting average current densities at the beginning and at the end of the 300 ms step against the membrane potential (FIG. 4).
In order to determine the relative overall open probability (P0), the instantaneous tail currents were normalized to the maximal tail current obtained following the most positive voltage step and plotted against the test voltage. Plots of normalized tail currents from each whole cell patch were then fitted to a Boltzmann function allowing determination of half activation voltages (V1/2, FIG. 5).
For automated patch clamp experiments extracellular solutions contained: 2 mM CaCl2, 1 mM MgCl2, 10 mM HEPES, 4 mM KCl, 145 mM NaCl, 10 mM Glucose, pH adjusted to 7.4 with NaOH (2 M). Osmolality adjusted to ˜320 using sucrose.
Intracellular solutions contained: 80 mM CsF, 60 mM CsCl, 5/1 mM KOH/EGTA, 10 mM HEPES, 10 mM NaCl, pH adjusted to 7.2 with NaOH (2 M). Osmolality adjusted to ˜320 mOsm using sucrose.
Cells used in patch clamp experiments were Chinese hamster ovary cells (CHO) constitutively expressing human CIC-1 channels. The amino acid sequence encoded by the cDNA used to create this cell line was identical to the translated sequence for GenBank accession number NM_000083.2. Cells were produced by Charles River (Catalogue CT6175, Cleveland Ohio, USA) in a cryopreserved format. Experiments were performed on the cells directly after thawing (3×10^6 cells used in each experiment).
To evaluate the compound effect on CIC-1, when applied directly to the intracellular side of the cell membrane, the half activation voltage, V1/2, was determined from whole cell patches with compound added to the intracellular solution and then compared to V1/2 determined from control cell patches with only vehicle added to the intracellular solution. Additionally, the effect of extracellular added compound was evaluated by determine V1/2 and steady state current amplitudes before and after exchanging the extracellular solution to contain compound.
The difference in half activation voltage of CIC-1 channels, […]V1/2, was determined as the difference between the cell patches treated intracellularly with compound and control cells patches and is reported in Table 4 below. A positive shift in […]V1/2 is reflecting CIC-1 channel inhibition by the tested compound. P-values of <0.05 is considered significant.

Lewis rats = experiment: In situ muscle contractile characteristics: isometric hindlimb force under cisatracurium infusion; format: in vivo, rat; conditions: 21.5 mg/kg i.v.; 12 Hz; 3 experiments
Description: Isometric hindlimb force was measured in 12-week old female Lewis rats in the presence and absence of compound.
Rats were placed under anesthesia with isoflurane (2-4%), intubated and subsequently connected to a micro ventilator (Microvent 1, Hallowell EMC, US). Two stimulation electrodes were inserted through the skin to stimulate the sciatic nerve. A small incision was made proximal to the ankle, to expose the Achilles tendon, which was tied by cotton string, and connected to a force transducer (Fort250, World Precision Instruments) with adjustable position (Vernier control). The Achilles tendon was then cut distal to the attached cotton string. […]
Muscle contractile properties were assessed by applying an electrical current (under supramaximal voltage conditions) to the nerve and recording the force generated by the muscle. The muscle was stretched until maximal force was obtained, when assessed by 2 Hz stimulation. Isometric force was measured every 30 seconds at 12 Hz (Twitch), 10 pulses, and at every 5 minutes at 80 Hz (Tetanic) for 1 second (80 pulses). […] The effect of test article was assessed on its ability to increase force generated from the stimulation pattern applied. The effect was assessed in the ability to increase force per se (tetanic, 80 Hz, stimulation), and the ratio between individual twitch peaks (12 Hz stimulation). […]

pKd (CIC-1 ion channels) | ΔV½ (human CIC-1 channels) [mV] | SMILES | activation at 50 µM [1] [%] | change in twitch peaks (Lewis rats)
5.39 |  | CC(C)[C@H](Oc1ccc(Br)cc1)C(=O)O [Compound C22, (2S)-2-(4-bromophenoxy)-3methylbutanoic acid] | 16 | 
 | 9.2 | C[C@H](Oc1ccc(Br)cc1C1CC1)C(=O)O [Compound A-2, (2S)-2-(4-bromo-2-cyclopropylphenoxy)propanoic acid] |  | no significant change
